The values below come from ChEMBL document CHEMBL4130627, “Prodrugs of the Phosphoribosylated Forms of Hydroxypyrazinecarboxamide Pseudobase T-705 and Its De-Fluoro Analogue T-1105 as Potent Influenza Virus Inhibitors” (J Med Chem, 2018).

SMILES strings stand for the structures. Where only a bound is given, the exact number is not on record here.

Series [1] in a line: Cytotoxicity against MDCK cells assessed as change in cell morphology after 3 days by microscopic analysis. Type of series: cell-based, Canis lupus familiaris. The settings on record: dog.
For series [2], the system named is Influenza A virus. In words: microbe, parasite or virus in culture. The settings on record: MDCK, 72 h.
Description: Antiviral activity against Influenza virus A/X-31 infected in MDCK cells assessed as reduction in viral replication at 3 days post infection by formazan-based MTS assay
Series [3] has as its system MDCK. In words: Prodrug activation in MDCK cells by RP-HPLC-UV analysis. It is filed as cell-based, Canis lupus familiaris. The settings on record: dog.
Series [4] has as its system Influenza B virus. In words: microbe, parasite or virus in culture. The settings on record: Ned/537/05, MDCK, 72 h.
Description: Antiviral activity against Influenza virus B/Ned/537/05 infected in MDCK cells assessed as reduction in viral replication at 3 days post infection by formazan-based MTS assay
Series [5] has as its system Influenza A virus. In words: microbe, parasite or virus in culture. The settings on record: MDCK, 72 h. The source holds these as a separate data set.
Description: Antiviral activity against Influenza virus A/X-31 infected in MDCK cells assessed as reduction in viral replication at 3 days post infection by microscopic analysis
Series [6] relates to Influenza B virus. Nature of the series: microbe, parasite or virus in culture. The settings on record: Ned/537/05, MDCK, 72 h. The source holds these as a separate data set.
Description: Antiviral activity against Influenza virus B/Ned/537/05 infected in MDCK cells assessed as reduction in viral replication at 3 days post infection by microscopic analysis
Series [7] is described as follows: Cytotoxicity against MDCK cells assessed as reduction in cell viability after 3 days by formazan-based MTS assay. Also on record: species or system Canis lupus familiaris. The settings on record: dog. In general terms: Tetrazolium assays rely on reduction of a dye to a coloured formazan, in cell work by metabolically active cells.
For series [8], the system named is MDCK. In words: Prodrug activation in HGPRT deficient 6-thioguanine-resistant MDCK cells by RP-HPLC-UV analysis. Type of series: cell-based, Canis lupus familiaris. The settings on record: dog.
Series [9] in a line: Cytotoxicity against HGPRT deficient 6-thioguanine-resistant MDCK cells assessed as change in cell morphology after 3 days by microscopic analysis. It is filed as cell-based, Canis lupus familiaris. The settings on record: dog.
Series [10] concerns MDCK. In words: Prodrug activation in HGPRT deficient MDCK cells assessed as T-1105-RMP formation at 465 uM after 1 to 840 mins by RP-HPLC-UV analysis. It is filed as cell-based, Canis lupus familiaris. The settings on record: dog.
Series [11] can be described thus: Drug metabolism in MDCK cells assessed as T-1105-RTP formation at 465 uM after 2 hrs in presence of 5mM ATP by RP-HPLC-UV analysis. Type of series: ADME, cell-based, Canis lupus familiaris. The settings on record: dog.
Series [12] addresses Membrane-associated guanylate kinase, WW and PDZ domain-containing protein 1 (Homo sapiens) (UniProt Q96QZ7). Nature of the series: Inhibition of human recombinant guanylate kinase 1 mediated […] conversion at 100 uM preincubated for 10 mins followed by enzyme addition measured up to 60 mins by UV absorbance method relative to control.
Series [13] relates to MDCK. In words: Cytotoxicity against MDCK cells assessed as reduction in cell viability at 37 uM after 3 days by formazan-based MTS assay. Also on record: species or system Canis lupus familiaris. The settings on record: dog, 72 h.
For series [14], the target named is Membrane-associated guanylate kinase, WW and PDZ domain-containing protein 1 (Homo sapiens) (UniProt Q96QZ7). In words: Inhibition of human recombinant guanylate kinase 1 mediated […] conversion at 200 uM preincubated for 10 mins followed by enzyme addition measured up to 60 mins by UV absorbance method relative to control.
Membrane-associated guanylate kinase, WW and PDZ domain-containing protein 1 (Homo sapiens), sequence (Q96QZ7 whole entry, the tested form may be a part): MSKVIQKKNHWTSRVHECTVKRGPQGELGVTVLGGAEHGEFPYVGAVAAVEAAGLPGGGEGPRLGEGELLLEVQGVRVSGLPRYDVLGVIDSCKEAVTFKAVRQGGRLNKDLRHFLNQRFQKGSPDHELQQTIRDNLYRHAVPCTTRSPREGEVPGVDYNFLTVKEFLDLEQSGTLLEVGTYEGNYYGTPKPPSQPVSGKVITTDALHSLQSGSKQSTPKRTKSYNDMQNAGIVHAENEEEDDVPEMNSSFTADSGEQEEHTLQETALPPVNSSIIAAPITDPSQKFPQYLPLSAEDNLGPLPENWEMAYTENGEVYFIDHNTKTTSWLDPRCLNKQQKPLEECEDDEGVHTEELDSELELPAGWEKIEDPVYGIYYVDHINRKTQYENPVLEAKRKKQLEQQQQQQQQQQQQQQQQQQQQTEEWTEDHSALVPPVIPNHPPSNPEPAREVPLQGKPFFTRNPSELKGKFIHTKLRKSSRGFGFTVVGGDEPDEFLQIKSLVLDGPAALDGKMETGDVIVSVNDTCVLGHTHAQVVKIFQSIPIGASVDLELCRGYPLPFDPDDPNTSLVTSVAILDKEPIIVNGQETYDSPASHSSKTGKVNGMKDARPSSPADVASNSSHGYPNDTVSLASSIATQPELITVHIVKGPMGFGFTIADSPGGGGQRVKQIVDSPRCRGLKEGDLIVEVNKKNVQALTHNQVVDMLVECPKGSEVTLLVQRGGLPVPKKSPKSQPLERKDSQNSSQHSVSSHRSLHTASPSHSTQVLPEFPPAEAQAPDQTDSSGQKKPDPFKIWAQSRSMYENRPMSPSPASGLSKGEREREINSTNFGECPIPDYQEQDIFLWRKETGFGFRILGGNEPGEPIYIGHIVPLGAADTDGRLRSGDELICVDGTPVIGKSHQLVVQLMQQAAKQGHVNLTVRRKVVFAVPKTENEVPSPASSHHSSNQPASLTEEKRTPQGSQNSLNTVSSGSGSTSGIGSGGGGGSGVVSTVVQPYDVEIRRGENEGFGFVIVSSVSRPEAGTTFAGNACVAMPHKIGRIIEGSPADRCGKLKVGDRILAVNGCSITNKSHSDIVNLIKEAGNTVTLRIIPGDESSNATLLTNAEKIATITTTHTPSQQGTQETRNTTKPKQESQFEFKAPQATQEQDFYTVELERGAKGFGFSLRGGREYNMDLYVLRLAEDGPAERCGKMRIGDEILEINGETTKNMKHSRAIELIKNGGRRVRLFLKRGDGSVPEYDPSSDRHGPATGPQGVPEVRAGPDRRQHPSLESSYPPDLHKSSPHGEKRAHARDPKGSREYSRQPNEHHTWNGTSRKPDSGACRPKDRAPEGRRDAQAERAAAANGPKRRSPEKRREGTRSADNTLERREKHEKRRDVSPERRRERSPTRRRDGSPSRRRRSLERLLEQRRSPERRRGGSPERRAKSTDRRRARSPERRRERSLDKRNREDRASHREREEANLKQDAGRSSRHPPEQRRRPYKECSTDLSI
A short description of series [15]: Drug metabolism in MDCK cells assessed as T-1105-RTP formation at 465 uM in presence of GTP by RP-HPLC-UV analysis. It is filed as ADME, cell-based, Canis lupus familiaris. The settings on record: dog.
The subject of series [16] is MDCK. In words: Prodrug activation in MDCK cells assessed as T-1105-RMP formation at 465 uM after 1 to 840 mins by RP-HPLC-UV analysis. Type of series: cell-based, Canis lupus familiaris. The settings on record: dog.
The target of series [17] is Membrane-associated guanylate kinase, WW and PDZ domain-containing protein 1 (Homo sapiens) (UniProt Q96QZ7). Nature of the series: Inhibition of human recombinant guanylate kinase 1 mediated […] conversion at 400 uM preincubated for 10 mins followed by enzyme addition measured up to 60 mins by UV absorbance method relative to control.
Series [18] deals with MDCK. Type of series: cell-based, Canis lupus familiaris. The settings on record: dog, 714 µM.
The subject of series [19] is MDCK. Nature of the series: Prodrug activation in MDCK cells assessed as T-705-RMP formation at 714 uM after 25 hrs by RP-HPLC-UV analysis. It is filed as cell-based, Canis lupus familiaris. The settings on record: dog.
Series [20] deals with MDCK. Nature of the series: Prodrug activation in MDCK cells assessed as parent compound remaining at 714 uM after 25 hrs by RP-HPLC-UV analysis. Type of series: cell-based, Canis lupus familiaris. The settings on record: dog.

A word on the EC50: it is the concentration at which the effect is half-maximal. In general, CC50 refers to the concentration giving 50% cytotoxicity. `NC(=O)c1nc(Br)cnc1O`: the MCC at 72 h in series [1] and in series [9] was greater than 250 µM throughout. Besides, the EC50 in the series on Influenza A virus [2], in the series with Influenza B virus [4], with Influenza A virus [5] and with Influenza B virus [6] was greater than 250 µM each time. For the same compound, the Drug metabolism result in the series with MDCK [3] and in the series on MDCK [8] was “Metabolite_Notdetected” in each case. The CC50 at 72 h in [7] is greater than 250 µM.
Broadly, the inhibition is the relative decrease from the control value, in per cent. Take `NC(=O)c1nccn([C@@H]2O[C@H](COP(=O)(O)OP(=O)(O)O)[C@@H](O)[C@H]2O)c1=O`: the Drug metabolism entry (in the series with MDCK [10]; in [11]; in series [15]; in the series with MDCK [16]) was “Metabolite_Detected” each time. The inhibition in [12] worked out at 37%; in [14], 62%; in [17], 82%. Moreover, the Activity entry in the series with MDCK [13] is listed as “Non-Toxic”.
`NC(=O)c1nc(F)c[nH]c1=O`: the MCC at 72 h in series [1] and in series [9] was greater than 250 µM in each case. For the same compound, the results for the Drug metabolism result in the series on MDCK [18] and in the series with MDCK [19] were “Metabolite_Notdetected” and “Metabolite_Detected”, respectively. Also, the Stability in the series with MDCK [20] was found to be 65%. The CC50 at 72 h in series [7] is greater than 250 µM.
